One assay deals with T1, Mer (Homo sapiens, UniProt Q12866).
T1 construct: host or cells: 293A cells (Thermo Fisher #R70507)
T1 sequence (Q12866 21-999): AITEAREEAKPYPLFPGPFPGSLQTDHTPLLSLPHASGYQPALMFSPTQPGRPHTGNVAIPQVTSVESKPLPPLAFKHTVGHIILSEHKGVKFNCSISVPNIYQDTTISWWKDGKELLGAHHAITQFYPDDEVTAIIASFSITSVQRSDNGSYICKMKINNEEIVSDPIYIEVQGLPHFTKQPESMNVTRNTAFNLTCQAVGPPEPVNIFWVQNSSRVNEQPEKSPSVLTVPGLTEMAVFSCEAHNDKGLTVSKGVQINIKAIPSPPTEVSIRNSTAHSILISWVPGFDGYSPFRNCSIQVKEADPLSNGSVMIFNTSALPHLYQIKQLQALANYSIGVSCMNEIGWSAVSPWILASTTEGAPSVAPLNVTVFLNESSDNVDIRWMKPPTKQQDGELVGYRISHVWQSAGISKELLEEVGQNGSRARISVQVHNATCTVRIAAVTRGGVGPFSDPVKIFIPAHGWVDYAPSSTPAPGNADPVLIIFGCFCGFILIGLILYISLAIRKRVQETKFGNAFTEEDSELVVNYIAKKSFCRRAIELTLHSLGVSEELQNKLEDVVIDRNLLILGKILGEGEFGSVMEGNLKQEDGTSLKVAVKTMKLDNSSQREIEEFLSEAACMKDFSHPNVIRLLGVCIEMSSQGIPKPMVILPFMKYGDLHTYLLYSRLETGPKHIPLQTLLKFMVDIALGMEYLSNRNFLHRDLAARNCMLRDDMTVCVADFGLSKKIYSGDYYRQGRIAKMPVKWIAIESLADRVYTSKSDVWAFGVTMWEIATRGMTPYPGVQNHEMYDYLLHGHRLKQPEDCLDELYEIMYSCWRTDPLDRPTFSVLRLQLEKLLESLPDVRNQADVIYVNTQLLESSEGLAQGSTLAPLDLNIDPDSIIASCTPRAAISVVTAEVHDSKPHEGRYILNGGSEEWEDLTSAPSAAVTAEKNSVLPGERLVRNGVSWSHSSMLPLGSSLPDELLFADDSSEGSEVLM
Description: Mer autophosphorylation ELISA in transient transfected 293A cells. The note with it: 293A cells transfected with MERTK DNA, phospho-Mer ELISA, 1 h compound incubation. Format: cell-based. On the procedure:
Example D: Mer Autophosphorylation ELISA in Transient Transfected 293A Cells
293A cells (Thermo Fisher #R70507) were seeded at 1.5×10^6 cells/well onto 100 mm dish (Greiner #664169), in DMEM (Thermo Fisher #11995-040) containing 10% FBS (Thermo Fisher #26140-079), 1% MEM NEAA (Thermo Fisher #11140-050), 1% GlutaMax (Thermo Fisher #35050-061), and 1% Penicillin Streptomycin (Thermo Fisher #15140-122). 293A cells were incubated at 37° C., 5% CO2 for 24 h and then transfected with 6 μg MERTK DNA (Genecopoeia #EX-Z8208-M02) using TransIT LT1 transfection reagent (Mirus-Bio #MIR2305). After 24 h incubation, the transfected 293A cells were seeded at 1×10^5 cells/well onto 96-well plates (Corning #3904) in DMEM growth medium overnight. Test compounds were serially diluted to produce an 8-point dose curve in fresh serum-free medium to a final concentration of 0.3% DMSO (vehicle) and added to the cells and incubated for 1 h. Cells were then immediately lysed with 150 μL of cold IX lysis buffer [20 mM Tris, 137 mM sodium chloride, 2 mM EDTA, 10% glycerol, l % NP-40 alternative, 1 mM activated sodium orthovanadate, 1 mM PefaBloc SC (Sigma-Aldrich #11429868001), protease/phosphatase inhibitor tablet (Thermo Fisher #A32959)]. Lysates were clarified by centrifugation and 50 μL/well added into the human phospho-Mer DuoSet IC ELISA (R&D Systems #DYC2579-2). Assay was performed according to manufacturer's instructions and sample phospho-Mer concentrations were extrapolated using human phospho-Mer control (R&D Systems #841793) as a standard. Positive control wells (100% activity) contained DMSO-treated cell lysates. Negative control wells (0% activity) contained reference inhibitor-treated cell lysates. IC50 values were calculated by nonlinear regression analysis using a 4-parameter logistic curve fit in ActivityBase XE (IDBS).

A further assay addresses T2, Met (Homo sapiens, UniProt P08581).
T2 construct: host or cells: PC-3 prostate cancer cells
Nature of the assay: Met autophosphorylation ELISA in PC-3 cells. Format: cell-based. The settings on record: PC-3 prostate cancer cells, HGF-stimulated, phospho-Met ELISA, 1 h compound incubation; read-out: c-Met IC50. On the procedure:
Example B: Met Autophosphorylation ELISA in PC-3 Cells
PC-3 prostate cancer cells (ATCC #CRL-1435) were seeded at 4×10^4 cells/well onto 24-well plates (Greiner #662165), in DMEM (Thermo Fisher #11995-040) containing 10% FBS (Thermo Fisher #26140-079), 1% MEM NEAA (Thermo Fisher #11140-050), 1% GlutaMax (Thermo Fisher #35050-061), and 1% Penicillin Streptomycin (Thermo Fisher #15140-122). PC-3 cells were incubated at 37° C., 5% CO2 for 24 h and then starved for 3 h in serum-free medium. Test compounds were serially diluted to produce an 8-point dose curve in fresh serum-free medium to a final concentration of 0.3% DMSO (vehicle) and added to the cells and incubated for 1 h. Cells were then stimulated with 100 ng/mL recombinant human HGF (R&D Systems #294-HG-250) for 10 min, washed with cold PBS, and immediately lysed with 130 μL of cold IX lysis buffer [20 mM Tris, 137 mM sodium chloride, 2 mM EDTA, 10% glycerol, 1% NP-40 alternative, 1 mM activated sodium orthovanadate, 1 mM PefaBloc SC (Sigma-Aldrich #11429868001), protease/phosphatase inhibitor tablet (Thermo Fisher #A32959)]. Lysates were clarified by centrifugation and 100 μL/well added into the PathScan phospho-Met (panTyr) Sandwich ELISA (Cell Signaling Technology #7333). Assay was performed according to manufacturer's instructions. Positive control wells (100% activity) contained HGF-stimulated, DMSO-treated cell lysates. Negative control wells (0% activity) contained HGF-stimulated, reference inhibitor-treated cell lysates. IC50 values were calculated by nonlinear regression analysis using a 4-parameter logistic curve fit in ActivityBase XE (IDBS).

T2 sequence (P08581 25-1390): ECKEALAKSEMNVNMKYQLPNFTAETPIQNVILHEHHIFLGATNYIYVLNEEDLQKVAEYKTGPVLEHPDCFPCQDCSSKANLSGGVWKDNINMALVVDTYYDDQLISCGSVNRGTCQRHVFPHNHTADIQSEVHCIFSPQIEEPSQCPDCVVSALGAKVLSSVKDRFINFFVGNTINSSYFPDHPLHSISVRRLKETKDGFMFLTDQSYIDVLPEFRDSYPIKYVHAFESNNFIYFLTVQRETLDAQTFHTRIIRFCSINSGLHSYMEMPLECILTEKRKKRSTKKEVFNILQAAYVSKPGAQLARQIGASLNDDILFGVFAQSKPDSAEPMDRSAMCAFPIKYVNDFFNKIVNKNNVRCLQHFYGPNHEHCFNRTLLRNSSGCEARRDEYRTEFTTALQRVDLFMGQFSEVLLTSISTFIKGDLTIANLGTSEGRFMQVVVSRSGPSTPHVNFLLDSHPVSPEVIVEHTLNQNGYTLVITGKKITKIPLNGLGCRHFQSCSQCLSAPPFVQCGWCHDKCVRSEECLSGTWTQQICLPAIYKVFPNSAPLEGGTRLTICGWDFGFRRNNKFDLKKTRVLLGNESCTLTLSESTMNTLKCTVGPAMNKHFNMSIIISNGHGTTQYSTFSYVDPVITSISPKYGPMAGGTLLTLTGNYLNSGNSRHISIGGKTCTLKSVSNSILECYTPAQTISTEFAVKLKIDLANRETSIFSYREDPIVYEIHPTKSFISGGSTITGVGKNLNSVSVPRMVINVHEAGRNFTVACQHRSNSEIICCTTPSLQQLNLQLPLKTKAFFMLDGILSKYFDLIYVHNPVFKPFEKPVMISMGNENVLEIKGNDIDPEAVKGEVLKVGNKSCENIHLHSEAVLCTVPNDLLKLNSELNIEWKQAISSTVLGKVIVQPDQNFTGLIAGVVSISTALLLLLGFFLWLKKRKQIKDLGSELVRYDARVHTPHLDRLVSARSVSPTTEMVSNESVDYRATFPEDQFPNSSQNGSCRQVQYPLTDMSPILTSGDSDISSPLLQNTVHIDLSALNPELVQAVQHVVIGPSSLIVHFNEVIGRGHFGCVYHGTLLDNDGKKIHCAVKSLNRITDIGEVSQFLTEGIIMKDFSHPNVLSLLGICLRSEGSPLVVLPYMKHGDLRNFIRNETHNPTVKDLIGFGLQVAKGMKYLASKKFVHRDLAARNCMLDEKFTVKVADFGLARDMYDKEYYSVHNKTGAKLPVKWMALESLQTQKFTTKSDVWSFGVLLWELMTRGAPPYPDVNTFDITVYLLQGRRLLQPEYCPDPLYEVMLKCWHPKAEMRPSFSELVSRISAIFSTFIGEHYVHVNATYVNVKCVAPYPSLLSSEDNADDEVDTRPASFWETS

`COc1cc2nccc(Oc3ccc(NC(=O)C4(C(=O)N(C)c5ccc(F)cc5)CC4)cc3)c2cc1OC` [Compound 9, 1-N-[4-(6,7-Dimethoxyquinolin-4-yl)oxyphenyl]-1-N′-(4-fluorophenyl)-1-N′-methylcyclopropane-1,1-dicarboxamide]: the IC50 on Mer and at Met was > 300 nM throughout.
Regarding `COc1cc2nccc(Oc3ccc(NC(=O)C4(C(=O)N(C)c5ccc(F)cc5)CC4)cc3F)c2cc1OC` [Compound 10, N-(4-((6,7-Dimethoxyquinolin-4-yl)oxy)-3-fluorophenyl)-N-(4-fluorophenyl)-N-methylcyclopropane-1,1-dicarboxamide], the IC50 on Mer and on Met was > 300 nM in each case.
Consider `CNC(=O)c1cc2c(Oc3ncc(NC(=O)C4(C(=O)N(C)c5ccc(F)cc5)CC4)cc3F)ccnc2cc1OC` [Compound 34, 1-N-[5-Fluoro-6-[7-methoxy-6-(methylcarbamoyl)quinolin-4-yl]oxypyridin-3-yl]-1-N′-(4-fluorophenyl)-1-N′-methylcyclopropane-1,1-dicarboxamide], for which the IC50 against Mer and at Met was > 300 nM each time.
As for `COc1cc2nccc(Oc3ncc(NC(=O)C4(C(=O)N(C)c5ccc(F)cc5)CC4)cc3F)c2cc1C(N)=O` [Compound 35, 1-N-[6-(6-Carbamoyl-7-methoxyquinolin-4-yl)oxy-5-fluoropyridin-3-yl]-1-N′-(4-fluorophenyl)-1-N′-methylcyclopropane-1,1-dicarboxamide], the IC50 on Mer and on Met was > 300 nM each time.
With `COc1cc2nccc(Oc3ccc(N(C)C(=O)C4(C(=O)Nc5ccc(F)cc5)CC4)cc3F)c2cc1OC` [Compound 51, 1-N′-[4-(6,7-Dimethoxyquinolin-4-yl)oxy-3-fluorophenyl]-1-N-(4-fluorophenyl)-1-N′-methylcyclopropane-1,1-dicarboxamide], the IC50 against Mer and on Met was > 300 nM throughout.

These data come from patent US20220089541A1, “Compounds for the Treatment of Kinase-Dependent Disorders” (Exelixis, Inc., priority 2019, published 2022).
